Tested on: 186277-243-T-J2-PDC complex spheroid viability
Assay: Anticancer human tumor 186277-243-T-J2-PDC patient-derived colon adenocarcinoma cell line growth inhibition [GQUAD]
Conditions: for IC50: curve of first compound; for viability, T/C: stronger effect = lower value
In short: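 Viability of tumor cells grown as complex spheroids with endothelial and stromal cells, exposed to drug combinations. Top concentration at or near clinical Cmax (else 10 microM), diluted in half-log increments.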

[1] = second compound 0.0316 µM, first compound 0.0316 µM
[2] = second compound 0.0316 µM, first compound 0.1 µM
[3] = second compound 0.0316 µM, first compound 0.316 µM
[4] = second compound 0.0316 µM, first compound 1 µM
[5] = second compound 0.0316 µM, first compound 3.16 µM
[6] = second compound 0.0316 µM, first compound 10 µM
[7] = second compound 0.1 µM, first compound 0.0316 µM
[8] = second compound 0.1 µM, first compound 0.1 µM
[9] = second compound 0.1 µM, first compound 0.316 µM
[10] = second compound 0.1 µM, first compound 1 µM
[11] = second compound 0.1 µM, first compound 3.16 µM
[12] = second compound 0.1 µM, first compound 10 µM
[13] = second compound 0.316 µM, first compound 0.0316 µM
[14] = second compound 0.316 µM, first compound 0.1 µM
[15] = second compound 0.316 µM, first compound 0.316 µM
[16] = second compound 0.316 µM, first compound 1 µM
[17] = second compound 0.316 µM, first compound 3.16 µM
[18] = second compound 0.316 µM, first compound 10 µM
[19] = second compound 1 µM, first compound 0.0316 µM
[20] = second compound 1 µM, first compound 0.1 µM
[21] = second compound 1 µM, first compound 0.316 µM
[22] = second compound 1 µM, first compound 1 µM
[23] = second compound 1 µM, first compound 3.16 µM
[24] = second compound 1 µM, first compound 10 µM
[25] = second compound 3.16 µM, first compound 0.0316 µM
[26] = second compound 3.16 µM, first compound 0.1 µM
[27] = second compound 3.16 µM, first compound 0.316 µM
[28] = second compound 3.16 µM, first compound 1 µM
[29] = second compound 3.16 µM, first compound 3.16 µM
[30] = second compound 3.16 µM, first compound 10 µM
[31] = second compound 10 µM, first compound 0.0316 µM
[32] = second compound 10 µM, first compound 0.1 µM
[33] = second compound 10 µM, first compound 0.316 µM
[34] = second compound 10 µM, first compound 1 µM
[35] = second compound 10 µM, first compound 3.16 µM
[36] = second compound 10 µM, first compound 10 µM
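For viability, T/C in this document: 100% = DMSO vehicle control viability.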

`COc1cc(C2c3cc4c(cc3C(OC3OC5COC(C)OC5C(O)C3O)C3COC(=O)C23)OCO4)cc(OC)c1O` (stereo not drawn) + Cc1[nH]c2ccc(F)cc2c1-c1nc2c3cccnc3c3ncccc3c2[nH]1 was tested, and the IC50 (second compound 0.0316 µM) was 3720 nM, the IC50 (second compound 0.1 µM) was 2420 nM and the IC50 (second compound 0.316 µM) was 3480 nM. It also gave an IC50 (second compound 1 µM) of 3340 nM, an IC50 (second compound 3.16 µM) of 2580 nM and an IC50 (second compound 10 µM) of 2760 nM. The viability, T/C [1] was 104%, the viability, T/C [2] was 101% and the viability, T/C [3] was 101%. For the same compound, the viability, T/C [4] was 62.2%, the viability, T/C [5] was 61.3% and the viability, T/C [6] was 25%. For the same compound, the viability, T/C [7] was 92.1%, the viability, T/C [8] was 92.4% and the viability, T/C [9] was 76.8%. The viability, T/C [10] was 62%, the viability, T/C [11] was 47.9% and the viability, T/C [12] was 27.2%. The viability, T/C [13] was 94.6%, the viability, T/C [14] was 90.2% and the viability, T/C [15] was 83.4%. It also gave a viability, T/C [16] of 69.3%, a viability, T/C [17] of 52.9% and a viability, T/C [18] of 26.2%. For the same compound, the viability, T/C [19] was 104%, the viability, T/C [20] was 87.1% and the viability, T/C [21] was 85.6%. For the same compound, the viability, T/C [22] was 66.9%, the viability, T/C [23] was 53.5% and the viability, T/C [24] was 27.4%. For the same compound, the viability, T/C [25] was 96.6%, the viability, T/C [26] was 101% and the viability, T/C [27] was 110%. The viability, T/C [28] was 69%, the viability, T/C [29] was 49.8% and the viability, T/C [30] was 25.5%. The viability, T/C [31] was 103%, the viability, T/C [32] was 98% and the viability, T/C [33] was 94.1%. For the same compound, the viability, T/C [34] was 70.6%, the viability, T/C [35] was 48.1% and the viability, T/C [36] was 30.5%.
`Cc1cccc(N(C)C(=O)C2C(O)CCN2c2nc(C)cc(C(F)(F)F)c2C#N)c1` (stereo not drawn) + Cc1[nH]c2ccc(F)cc2c1-c1nc2c3cccnc3c3ncccc3c2[nH]1 gave an IC50 (second compound 0.0316 µM) greater than 10000 nM, an IC50 (second compound 0.1 µM) greater than 10000 nM and an IC50 (second compound 0.316 µM) greater than 10000 nM. It also gave an IC50 (second compound 1 µM) greater than 10000 nM, an IC50 (second compound 3.16 µM) greater than 10000 nM and an IC50 (second compound 10 µM) greater than 10000 nM. The viability, T/C [1] was 104%, the viability, T/C [2] was 104% and the viability, T/C [3] was 98.2%. For the same compound, the viability, T/C [4] was 95.8%, the viability, T/C [5] was 88.7% and the viability, T/C [6] was 106%. For the same compound, the viability, T/C [7] was 104%, the viability, T/C [8] was 97.1% and the viability, T/C [9] was 100%. The viability, T/C [10] was 92.6%, the viability, T/C [11] was 95.5% and the viability, T/C [12] was 96.3%. It also gave a viability, T/C [13] of 92.6%, a viability, T/C [14] of 105% and a viability, T/C [15] of 99.8%. For the same compound, the viability, T/C [16] was 98%, the viability, T/C [17] was 105% and the viability, T/C [18] was 104%. The viability, T/C [19] was 128%, the viability, T/C [20] was 85.8% and the viability, T/C [21] was 98.2%. It also gave a viability, T/C [22] of 98.3%, a viability, T/C [23] of 97% and a viability, T/C [24] of 108%. The viability, T/C [25] was 127%, the viability, T/C [26] was 89.3% and the viability, T/C [27] was 98.2%. The viability, T/C [28] was 105%, the viability, T/C [29] was 99.9% and the viability, T/C [30] was 113%. The viability, T/C [31] was 90.9%, the viability, T/C [32] was 101% and the viability, T/C [33] was 109%. It also gave a viability, T/C [34] of 92.2%, a viability, T/C [35] of 98.8% and a viability, T/C [36] of 99.9%.
`Cn1ncnc1[C@H]1c2n[nH]c(=O)c3cc(F)cc(c23)N[C@@H]1c1ccc(F)cc1` + Cc1[nH]c2ccc(F)cc2c1-c1nc2c3cccnc3c3ncccc3c2[nH]1 gave an IC50 (second compound 0.0316 µM) greater than 316 nM, an IC50 (second compound 0.1 µM) greater than 316 nM and an IC50 (second compound 0.316 µM) greater than 316 nM. It also gave an IC50 (second compound 1 µM) greater than 316 nM, an IC50 (second compound 3.16 µM) greater than 316 nM and an IC50 (second compound 10 µM) greater than 316 nM. It also gave a viability, T/C (second compound 0.0316 µM, first compound 0.000999 µM) of 112%, a viability, T/C (second compound 0.0316 µM, first compound 0.00316 µM) of 99.2% and a viability, T/C (second compound 0.0316 µM, first compound 0.00999 µM) of 94.8%. The viability, T/C [1] was 94.2%, the viability, T/C (second compound 0.0316 µM, first compound 0.0999 µM) was 98.1% and the viability, T/C [3] was 89.3%. The viability, T/C (second compound 0.1 µM, first compound 0.000999 µM) was 93.5%, the viability, T/C (second compound 0.1 µM, first compound 0.00316 µM) was 98.2% and the viability, T/C (second compound 0.1 µM, first compound 0.00999 µM) was 101%. The viability, T/C [7] was 91.7%, the viability, T/C (second compound 0.1 µM, first compound 0.0999 µM) was 84.5% and the viability, T/C [9] was 95.6%. The viability, T/C (second compound 0.316 µM, first compound 0.000999 µM) was 86.3%, the viability, T/C (second compound 0.316 µM, first compound 0.00316 µM) was 93.1% and the viability, T/C (second compound 0.316 µM, first compound 0.00999 µM) was 96.7%. The viability, T/C [13] was 103%, the viability, T/C (second compound 0.316 µM, first compound 0.0999 µM) was 91.7% and the viability, T/C [15] was 88.7%. For the same compound, the viability, T/C (second compound 1 µM, first compound 0.000999 µM) was 85.5%, the viability, T/C (second compound 1 µM, first compound 0.00316 µM) was 101% and the viability, T/C (second compound 1 µM, first compound 0.00999 µM) was 98.4%. The viability, T/C [19] was 102%, the viability, T/C (second compound 1 µM, first compound 0.0999 µM) was 102% and the viability, T/C [21] was 89.6%. The viability, T/C (second compound 3.16 µM, first compound 0.000999 µM) was 103%, the viability, T/C (second compound 3.16 µM, first compound 0.00316 µM) was 97.7% and the viability, T/C (second compound 3.16 µM, first compound 0.00999 µM) was 113%. The viability, T/C [25] was 104%, the viability, T/C (second compound 3.16 µM, first compound 0.0999 µM) was 87.5% and the viability, T/C [27] was 95%. For the same compound, the viability, T/C (second compound 10 µM, first compound 0.000999 µM) was 105%, the viability, T/C (second compound 10 µM, first compound 0.00316 µM) was 103% and the viability, T/C (second compound 10 µM, first compound 0.00999 µM) was 101%. The viability, T/C [31] was 107%, the viability, T/C (second compound 10 µM, first compound 0.0999 µM) was 82.1% and the viability, T/C [33] was 86.4%.
Work on `Nc1ccn(C2OC(CO)C(O)C2(F)F)c(=O)n1` (stereo not drawn) + Cc1[nH]c2ccc(F)cc2c1-c1nc2c3cccnc3c3ncccc3c2[nH]1 yielded an IC50 (second compound 0.0316 µM) of less than 31.6 nM, an IC50 (second compound 0.1 µM) of less than 31.6 nM and an IC50 (second compound 0.316 µM) of less than 31.6 nM. It also gave an IC50 (second compound 1 µM) of less than 31.6 nM, an IC50 (second compound 3.16 µM) of less than 31.6 nM and an IC50 (second compound 10 µM) of less than 31.6 nM. The viability, T/C [1] was 21.6%, the viability, T/C [2] was 11.7% and the viability, T/C [3] was 11.9%. For the same compound, the viability, T/C [4] was 10.3%, the viability, T/C [5] was 11.4% and the viability, T/C [6] was 11.4%. For the same compound, the viability, T/C [7] was 22.8%, the viability, T/C [8] was 11.5% and the viability, T/C [9] was 11.6%. The viability, T/C [10] was 9.19%, the viability, T/C [11] was 12.4% and the viability, T/C [12] was 11.5%. The viability, T/C [13] was 23.7%, the viability, T/C [14] was 10.1% and the viability, T/C [15] was 11.9%. For the same compound, the viability, T/C [16] was 10.4%, the viability, T/C [17] was 12.4% and the viability, T/C [18] was 11.6%. It also gave a viability, T/C [19] of 18.9%, a viability, T/C [20] of 10.6% and a viability, T/C [21] of 11.8%. The viability, T/C [22] was 10.4%, the viability, T/C [23] was 11.7% and the viability, T/C [24] was 12.1%. For the same compound, the viability, T/C [25] was 23.4%, the viability, T/C [26] was 15.5% and the viability, T/C [27] was 11.9%. For the same compound, the viability, T/C [28] was 11.3%, the viability, T/C [29] was 9.87% and the viability, T/C [30] was 12.2%. The viability, T/C [31] was 20.2%, the viability, T/C [32] was 8.63% and the viability, T/C [33] was 9.73%. For the same compound, the viability, T/C [34] was 9.38%, the viability, T/C [35] was 11.6% and the viability, T/C [36] was 12.2%.
